In one data set the test system is hyperuricaemic mice. In words: Hyperuricaemic (potassium oxonate) mice: serum and urinary uric acid, urinary creatinine. The class given is in vivo, mouse. How it is done: A total of 45 C57/Black 6 mice in 9 groups (n=5) were studied for a period of one week. The drugs were dissolved or dispersed in distilled water immediately prior to dosing and administered in a volume of 15 mL/kg by gastric gavage. The volume of drug administered was based on the body weight determined on the day of dosing. […] Whole blood and urine samples were collected 1 h after final drug administration on the seventh day. […] The serum and urine were stored at −80° C. until assayed. The uric acid levels in serum and urine were determined by the phosphotungstic acid method.^54 The creatinine levels in serum were determined spectrophotometrically using standard diagnostic kits.

For data set [1], the system named is subjects with acute gout flares. As to the kind of experiment: Open-label, active-controlled clinical trial in acute gout flares. The conditions noted are these: for proportion of subjects with ≧50% reduction in target joint pain score from baseline at 72 hours post-dose: PI-NRS. How it is done:
The primary efficacy endpoint is the proportion of patients who responded to treatment. Treatment responders are defined as a ≧50% reduction in target joint pain score from baseline at 72 hours post-dose without using rescue drug. The target joint pain score is an 11-point Pain Intensity Numeric Rating Scale (PI-NRS) used to assess joint pain intensity while experiencing a gout flare on a scale from 0 (no pain) to 10 (worst possible pain).

The next data set concerns Male C57/BL/6 mice. As to the kind of experiment: Monosodium urate crystal-induced peritoneal inflammation in mice. The class given is in vivo, mouse. The conditions noted are these: for decrease of mean neutrophil influx for every increase of 1 μmol/kg of the drug: single drug i.p., MSU crystals 0.5 mg i.p., logarithmic model. How it is done:
Colchicine was dissolved in PBS and administered at a dose of 0.05, 0.5 and 5 μmol/kg in a similar fashion. […] The mice were euthanised after 6 hours with CO2 and the peritoneal cells removed by lavage with 10 mL of cold PBS. The lavage fluid was analysed for neutrophil infiltration using a cytospin and Diff-Quick staining. The concentrations of IL-1β and IL-6 in the lavage supernatants was determined using an R&D Systems Quantikine mouse immunoassay.

Data set [2] relates to mouse peritoneal macrophages. As to the kind of experiment: MSU crystal-induced cytokine release from mouse peritoneal macrophages.
Procedure: Male C57/BL/6 mice were injected intraperitoneally with 4% thioglycollate solution and the macrophages collected by peritoneal lavage 3 days later.^57 The cells were plated at a density of 7×10^5 cells in 12-well dishes and non-adherent cells were removed after 3 hours. The cells were cultured in RPMI containing 10% FCS, sodium pyruvate, penicillin/streptomycin and L-glutamine. […] The concentration of IL-1β in the supernatant was determined with an R&D systems Quantikine mouse immunoassay.
The next data set relates to THP-1 cells. Conditions: THP-1 cells stimulated with lipopolysaccharide; cited from earlier work.
The test system of the next data set is patients. Conditions: febuxostat 80 mg/day; cited from earlier work.

In the case of `Oc1ncnc2[nH]ncc12` [allopurinol], the “effect on serum urate” value in the data set with hyperuricaemic mice (allopurinol 5 mg/kg/day, 7 days, to a level below normal baseline) is listed as “highly significant (p<0.001) drop in serum urate”. Moreover, the “effect on urinary uric acid” value in the data set on hyperuricaemic mice (allopurinol 5 mg/kg/day, level still below normal baseline) was “highly significant (p<0.001) increase in urinary uric acid”.

`CC(C)(S)C(=O)N[C@@H](CS)C(=O)O` [bucillamine, N-(2-mercapto-2-methylpropionyl)-L-cysteine]: the “proportion of subjects with ≧50% reduction in target joint pain score from baseline at 72 hours post-dose” value in data set [1] (Arm A, 900 mg, 2/8 subjects) came to 25%. Moreover, in data set [1] (Arm B, 1,800 mg, 6/9 subjects), the “proportion of subjects with ≧50% reduction in target joint pain score from baseline at 72 hours post-dose” value is on record as 67%. Also, in data set [1] (Arm B, 1,800 mg, all subjects, seven-day treatment period), the “use of rescue medication” value was “completed the treatment period without the use of rescue medication”. The “release of IL-1β and IL-6 into the peritoneal cavity” value with Male C57/BL/6 mice (after injection of monosodium urate crystals, mouse) was “attenuated”. Further, the “effect of addition of bucillamine on average neutrophil influx” value with Male C57/BL/6 mice (bucillamine 10 μmol/kg added to colchicine, MSU crystals i.p., 6 hours) is on record as “highly significant (p<0.001) decrease in average neutrophil influx”. Besides, in the data set with Male C57/BL/6 mice (6 hours), the “decrease of mean neutrophil influx for every increase of 1 μmol/kg of the drug” value is given as 5.15%. In data set [2] (MSU crystals 50 μg/mL, 6 hours), the “decrease in average IL-1β cytokine production with each additional 1 μmol/kg increase” value is reported as 30.7 pg/mL and the “decrease in average IL-6 cytokine production with each additional 1 μmol/kg increase” value stood at 13.7 pg/mL. The “decrease in average MSU crystal-induced IL-1β production” value in data set [2] (addition of bucillamine 10 μmol/kg to colchicine) is reported as 65.0%. The “increase of mean urinary uric acid for each increase of 1 mg/kg/day” value with hyperuricaemic mice (bucillamine alone, 7 days, dose-response slope) is reported as 0.079 mg/dL. For the same compound, the “reduction of mean serum urate for each increase of 1 mg/kg/day” value in the data set with hyperuricaemic mice (bucillamine alone, gastric gavage, 7 days, dose-response slope) is 0.0067 mg/dL. In addition, in the data set with THP-1 cells, the “release of TNF-α, IL-1β and IL-8” value is on record as “attenuated”.

Regarding `COc1cc2c(c(OC)c1OC)-c1ccc(OC)c(=O)cc1[C@@H](NC(C)=O)CC2` [colchicine], the “proportion of subjects with ≧50% reduction in target joint pain score from baseline at 72 hours post-dose” value in data set [1] (Arm C, 1.8 mg, 5/12 subjects) stood at 42%. For the same compound, the “related serious adverse events” value in data set [1] (any of the treatment arms, seven-day treatment period) is given as “No related serious adverse events”. Besides, in the data set on Male C57/BL/6 mice (6 hours), the “decrease of mean neutrophil influx for every increase of 1 μmol/kg of the drug” value is 18.3%. Moreover, in data set [2] (colchicine alone, logarithmic model), the “decrease of average MSU crystal-induced IL-1β production for every increase of 1 μmol/kg” value stood at 29.6%.

With `Cc1nc(-c2ccc(OCC(C)C)c(C#N)c2)sc1C(=O)O` [febuxostat], the “patients who previously failed to normalise uric acid levels (<360 μmol/L) on allopurinol and also failed” value in the data set with patients is given as 59%.

(Values after patent publication US9662305B2 (REVIVE THERAPEUTICS INC., priority 2012, dated 2017).)
